For data set [1] the following is noted: pH=7; cited from earlier work.
Data set [2] in a line: 24 h solubility of solid dispersions in PBS pH6.8. The settings on record: 37 °C, pH 6.8, aqueous buffer, thermodynamic from solid. Format: physicochemical. The method, then: The weight ratio of the drug to the carrier was 1:5. Different hydrophilic polymeric carrier materials were selected from the group consisting of polyethylene glycol 6000, poloxamer 188, PVP K30, Klucel® EF, Plasdone® S-630, mannitol and combinations thereof respectively. 12 parts by weight of dichloromathane were added into the drug and carrier mixture, and was dissolved by stirring. Then the solution was transferred to a vacuum oven, maintained at 55° C., dried under reduced pressure for 48 h. Then the dry mass was crushed with a 100 mesh sieve, thereby the solid dispersion of dronedarone was obtained. The solubilities of the solid dispersion in the phosphate buffered saline (PBS) at pH6.8 were measured as follows.
24 h Solubility Determination: aliquots of the prepared solid dispersion were added into a 100 ml conical flask respectively. Then 50 ml PBS pH6.8 were added. The conical flask was sealed and placed in a thermostatic waterbath shaker and shaked at a set temperature of 37° C. for 24 h. After 24 hours, 10 mL of the solution were taken and filtrated. The initial 4 mL of the filtrate were abandoned and the subsequent filtrate were taken and diluted with PBS pH6.8 to a corresponding folds. The UV absorbance at 290 nm was measured with a UV spectrophotometer. Then the drug solubilities were calculated.

The source of these data is US8921416B2, “Dronedarone solid dispersion and preparation method thereof” (Jiangsu Hengrui Medicine Co., Ltd., priority 2010, dated 2014).

Where a name gives a salt, the structure may show the parent alone.

`CCCCc1oc2ccc(NS(C)(=O)=O)cc2c1C(=O)c1ccc(OCCCN(CCCC)CCCC)cc1` [dronedarone, N-(2-Butyl-3-(4-(3-(dibutylamino)propoxy)benzoyl)-5-benzofuranyl)methanesulfonamide]: in data set [1], the “solubility in an aqueous solution” value is given as “about 10 μg/ml”.
Regarding `CCCCc1oc2ccc(NS(C)(=O)=O)cc2c1C(=O)c1ccc(OCCCN(CCCC)CCCC)cc1` [Dronedarone hydrochloride], the solubility at 24 h in data set [2] is 12 µg/mL.
